Results: patent US8247211B2, “Glycopeptide antibiotics” (American Cyanamid Company, priority 2001, dated 2012)
Values after ≈ are worked out from the molar mass of the structure shown.

Assays:
[1] = tested on: Enterococcus sp.; experiment: In vitro antibacterial evaluation: minimum inhibitory concentration (MIC), broth dilution method; assay type: cell-based
How it was run: (§1)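 First, organisms are seeded at 5×10^5 CFU/mL into Muller-Hinton II […]. Next, antibiotic is applied across 64-0.06 μg/mL by broth dilution (NCCLS M7-A2). Finally, the lowest inhibitory concentration is recorded as MIC.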

[2] = tested on: Escherichia coli; experiment: as above; assay type: cell-based
How it was run: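 An MIC is reported for each organism as the least concentration giving inhibition, using broth dilution over 64-0.06 μg/mL with a 5×10^5 CFU/mL inoculum.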

[3] = tested on: Staphylococcus sp.; experiment: as above; assay type: cell-based
How it was run: as §1

[4] = tested on: Streptococcus sp.; experiment: as above; assay type: cell-based
How it was run: as §1

[5] = tested on: Staphylococcus aureus-SMITH (GC 4543); experiment: Acute lethal infection in mice (ED50); assay type: in vivo; details: female CD-1 mice, intraperitoneal challenge, intravenous dose 30 min. after infection, 7 day survival ratios
How it was run: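 Female CD-1 mice (20 ± 1-2 g) were infected intraperitoneally with enough bacteria, suspended in Trypticase Soy Broth or hog gastric mucin, to kill untreated controls within 24-48 hr. Compound in saline or 5% dextrose was given intravenously 30 min after infection. ED50 came from pooled 7-day survival over 3 tests.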

[6] = broth dilution, 5×10^5 CFU/mL, 18 hours at 35° C.
[7] = 5×10^5 CFU/mL, 18 hours at 35° C.
[8] = strain ATCC 29213, broth dilution, 18 hours at 35° C.
[9] = strain GC 1131, broth dilution, 18 hours at 35° C.
[10] = strain GC 3051, broth dilution, 18 hours at 35° C.
[11] = strain GC 3053, broth dilution, 18 hours at 35° C.
[12] = strain GC 4541, broth dilution, 18 hours at 35° C.
[13] = strain GC 4542, broth dilution, 18 hours at 35° C.
[14] = strain GC 4543, broth dilution, 18 hours at 35° C.
[15] = strain GC 4544, broth dilution, 18 hours at 35° C.
[16] = strain GC 4545, broth dilution, 18 hours at 35° C.
[17] = strain GC 4546, broth dilution, 18 hours at 35° C.
[18] = strain GC 4547, broth dilution, 18 hours at 35° C.
[19] = strain GC 4548, broth dilution, 18 hours at 35° C.
[20] = strain GC 4549, broth dilution, 18 hours at 35° C.
[21] = strain GC 4551, broth dilution, 18 hours at 35° C.
[22] = strain GC 6257, broth dilution, 18 hours at 35° C.

With `COc1cccc(C2OCC3OC(OC4C(CO)OC(Oc5ccc(CC6NC(=O)C(C(C)c7ccccc7)NC(=O)CNC(=O)C(CO)NC(=O)C(C(O)C7CNC(=N)N7C7OC(CO)C(O)C(O)C7O)NC(=O)C(C(O)C7CNC(=N)N7)NC6=O)cc5)C(O)C4O)C(O)C(O)C3O2)c1` (stereo not drawn) [Example 137, Cyclo[glycyl-β-methylphenylalanyl-O-[4-O-[4,6-O-(3-methoxybenzylidene)hexopyranosyl]-hexopyranosyl]-tyrosyl-3-(2-iminoimidazolidin-4-yl)seryl-3-(3-hexopyranosyl-2-iminoimidazolidin-4-yl)serylseryl]] the “MIC Enterococccus avium (GC 4558)” value [1, 6] was 4 to 8 µg/mL, the “MIC Enterococccus faecalis (ATCC 29212)” value [1, 6] was 4 to 8 µg/mL and the “MIC Enterococccus faecalis (GC 2691)” value [1, 6] was 4 to 8 µg/mL. The “MIC Enterococccus faecalis (GC 3059)” value [1, 6] was 4 to 8 µg/mL, the “MIC Enterococccus faecalis (GC 4552)” value [1, 6] was 4 to 8 µg/mL and the “MIC Enterococccus faecalis (GC 4553)” value [1, 6] was 4 to 8 µg/mL. For the same compound, the “MIC Enterococccus faecalis (GC 4554)” value [1, 6] was 4 to 8 µg/mL, the “MIC Enterococccus faecalis (GC 6189)” value [1, 6] was 4 µg/mL (≈ 2.83 µM) and the “MIC Enterococccus faecium (GC 2243)” value [1, 6] was 4 to 8 µg/mL. For the same compound, the “MIC Enterococccus faecium (GC 4556)” value [1, 6] was 4 to 8 µg/mL, the “MIC Enterococccus faecium (GC 4557)” value [1, 6] was 2 to 4 µg/mL and the “MIC Enterococcus faecalis (GC 2242)” value [1, 6] was 4 to 8 µg/mL. The “MIC Escherichia coli (ATCC 25922)” value [2, 7] was 64 µg/mL (≈ 45.3 µM), the “MIC Escherichia coli (GC 4560)” value [2, 7] was 1 µg/mL (≈ 0.708 µM) and the “MIC Coagulase Negative Staphylococcus (GC 4547)” value [3, 6] was 1 to 2 µg/mL. The “MIC Coagulase Negative Staphylococcus (GC 4548)” value [3, 6] was 0.5 to 2 µg/mL, the “MIC Coagulase Negative Staphylococcus (GC 4549)” value [3, 6] was 0.5 to 1 µg/mL and the “MIC Coagulase Negative Staphylococcus (GC 4551)” value [3, 6] was 1 to 2 µg/mL. For the same compound, the “MIC Coagulase Negative Staphylococcus (GC 6257)” value [3, 6] was 1 µg/mL (≈ 0.708 µM), the “MIC Staphylococcus aureus-SMITH (GC 4543)” value [3, 6] was 1 to 2 µg/mL and the “MIC Staphylococcus haemolyticus (GC 4546)” value [3, 6] was 1 µg/mL (≈ 0.708 µM). The “MIC Staphylococcus aureus (ATCC 29213)” value ([3]; strain ATCC 29213) was 1 to 2 µg/mL, the “MIC Staphylococcus aureus (ATCC 29213)” value [3, 8] was 1 to 2 µg/mL and the “MIC Staphylococcus aureus (GC 1131)” value ([3]; strain GC 1131) was 2 µg/mL (≈ 1.42 µM). For the same compound, the “MIC Staphylococcus aureus (GC 1131)” value [3, 9] was 2 µg/mL (≈ 1.42 µM), the “MIC Staphylococcus aureus (GC 3051)” value ([3]; strain GC 3051) was 1 to 2 µg/mL and the “MIC Staphylococcus aureus (GC 3051)” value [3, 10] was 1 to 2 µg/mL. For the same compound, the “MIC Staphylococcus aureus (GC 3053)” value ([3]; strain GC 3053) was 2 to 4 µg/mL, the “MIC Staphylococcus aureus (GC 3053)” value [3, 11] was 2 to 4 µg/mL and the “MIC Staphylococcus aureus (GC 4541)” value ([3]; strain GC 4541) was 1 to 2 µg/mL. The “MIC Staphylococcus aureus (GC 4541)” value [3, 12] was 1 to 2 µg/mL, the “MIC Staphylococcus aureus (GC 4542)” value ([3]; strain GC 4542) was 1 to 2 µg/mL and the “MIC Staphylococcus aureus (GC 4542)” value [3, 13] was 1 to 2 µg/mL. The “MIC Staphylococcus aureus-SMITH (GC 4543)” value [3, 14] was 1 to 2 µg/mL, the “MIC Staphylococcus aureus (GC 4544)” value ([3]; strain GC 4544) was 2 µg/mL (≈ 1.42 µM) and the “MIC Staphylococcus aureus (GC 4544)” value [3, 15] was 2 µg/mL (≈ 1.42 µM). For the same compound, the “MIC Staphylococcus aureus (GC 4545)” value ([3]; strain GC 4545) was <2 to 4 µg/mL, the “MIC Staphylococcus aureus (GC 4545)” value [3, 16] was 2 to 4 µg/mL and the “MIC Staphylococcus haemolyticus (GC 4546)” value [3, 17] was 1 µg/mL (≈ 0.708 µM). The “MIC Coagulase Negative Staphylococcus (GC 4547)” value [3, 18] was 1 to 2 µg/mL, the “MIC Coagulase Negative Staphylococcus (GC 4548)” value [3, 19] was 0.5 to 2 µg/mL and the “MIC Coagulase Negative Staphylococcus (GC 4549)” value [3, 20] was 0.5 to 1 µg/mL. The “MIC Coagulase Negative Staphylococcus (GC 4551)” value [3, 21] was 1 to 2 µg/mL, the “MIC Coagulase Negative Staphylococcus (GC 6257)” value [3, 22] was 1 µg/mL (≈ 0.708 µM) and the “MIC Streptococcus agalactiae (GC 4564)” value [4, 6] was 0.5 µg/mL (≈ 0.354 µM). The “MIC Streptococcus pneumoniae (GC 1894)” value [4, 6] was <0.06 µg/mL, the “MIC Streptococcus pneumoniae (GC 4565)” value [4, 6] was 0.25 µg/mL (≈ 0.177 µM) and the “MIC Streptococcus pneumonine (ATCC 6301)” value [4, 6] was 0.12 µg/mL (≈ 0.0849 µM). The “MIC Streptococcus pyogenes (GC 4563)” value [4, 6] was 0.25 µg/mL (≈ 0.177 µM) and the median effective dose (ED50), Staphylococcus aureus-SMITH (GC 4543) [5] was 0.24 mg/kg.
`CC(c1ccccc1)C1NC(=O)CNC(=O)C(CO)NC(=O)C(C(O)C2CNC(=N)N2C2OC(CO)C(O)C(O)C2O)NC(=O)C(C(O)C2CNC(=N)N2)NC(=O)C(Cc2ccc(OC3OC(CO)C(OC4OC5COC(c6ccc7c(c6)OCO7)OC5C(O)C4O)C(O)C3O)cc2)NC1=O` (stereo not drawn) [Example 143, Cyclo[glycyl-β-methylphenylalanyl-O-[4-O-[4,6-O-(1,3-benzodioxol-5-ylmethylene)hexopyranosyl]hexopyranosyl]tyrosyl-3-(2-iminoimidazolidin-4-yl)seryl-3-(3-hexopyranosyl-2-iminoimidazolidin-4-yl)serylseryl]] was tested, and the “MIC Enterococcus faecalis (GC 2691)” value ([1]; strain GC 2691) was 8 µg/mL (≈ 5.6 µM), the “MIC Enterococcus faecium (GC 4557)” value ([1]; strain GC 4557) was 2 to 8 µg/mL and the “MIC Escherichia coli (ATCC 25922)” value ([2]; strain ATCC 25922) was >64 µg/mL. The “MIC Escherichia coli (GC 4559)” value ([2]; strain GC 4559) was 64 µg/mL (≈ 44.8 µM), the “MIC Escherichi coli (GC 4560)” value ([2]; strain GC 4560) was 1 to 2 µg/mL and the “MIC Coagulase Negative Staphylococcus (GC 4547)” value [3, 6] was 1 to 2 µg/mL. For the same compound, the “MIC Coagulase Negative Staphylococcus (GC 4548)” value [3, 6] was 1 to 2 µg/mL, the “MIC Coagulase Negative Staphylococcus (GC 4549)” value [3, 6] was 1 µg/mL (≈ 0.701 µM) and the “MIC Coagulase Negative Staphylococcus (GC 4551)” value [3, 6] was 2 to 4 µg/mL. The “MIC Coagulase Negative Staphylococcus (GC 6257)” value [3, 6] was 1 to 2 µg/mL, the “MIC Staphylococcus aureus (ATCC 29213)” value [3, 6] was 2 to 4 µg/mL and the “MIC Staphylococcus aureus (GC 1131)” value [3, 6] was 2 to 4 µg/mL. The “MIC Staphylococcus aureus (GC 3051)” value [3, 6] was 2 to 4 µg/mL, the “MIC Staphylococcus aureus (GC 3053)” value [3, 6] was 4 to 8 µg/mL and the “MIC Staphylococcus aureus (GC 4541)” value [3, 6] was 2 to 4 µg/mL. For the same compound, the “MIC Staphylococcus aureus (GC 4542)” value [3, 6] was 1 to 4 µg/mL, the “MIC Staphylococcus aureus (GC 4544)” value [3, 6] was 2 to 8 µg/mL and the “MIC Staphylococcus aureus (GC 4545)” value [3, 6] was 2 to 4 µg/mL. For the same compound, the “MIC Staphylococcus aureus-SMITH (GC 4543)” value [3, 6] was 2 to 4 µg/mL, the “MIC Staphylococcus haemolyticus (GC 4546)” value [3, 6] was 0.5 to 2 µg/mL and the “MIC Staphylococcus aureus (ATCC 29213)” value [3, 8] was 2 to 4 µg/mL. For the same compound, the “MIC Staphylococcus aureus (GC 1131)” value [3, 9] was 2 to 4 µg/mL, the “MIC Staphylococcus aureus (GC 3051)” value [3, 10] was 2 to 4 µg/mL and the “MIC Staphylococcus aureus (GC 3053)” value [3, 11] was 4 to 8 µg/mL. For the same compound, the “MIC Staphylococcus aureus (GC 4541)” value [3, 12] was 2 to 4 µg/mL, the “MIC Staphylococcus aureus (GC 4542)” value [3, 13] was 1 to 4 µg/mL and the “MIC Staphylococcus aureus-SMITH (GC 4543)” value [3, 14] was 2 to 4 µg/mL. The “MIC Staphylococcus aureus (GC 4544)” value [3, 15] was 2 to 8 µg/mL, the “MIC Staphylococcus aureus (GC 4545)” value [3, 16] was 2 to 4 µg/mL and the “MIC Staphylococcus haemolyticus (GC 4546)” value [3, 17] was 0.5 to 2 µg/mL. The “MIC Coagulase Negative Staphylococcus (GC 4547)” value [3, 18] was 1 to 2 µg/mL, the “MIC Coagulase Negative Staphylococcus (GC 4548)” value [3, 19] was 1 to 2 µg/mL and the “MIC Coagulase Negative Staphylococcus (GC 4549)” value [3, 20] was 1 µg/mL (≈ 0.701 µM). For the same compound, the “MIC Coagulase Negative Staphylococcus (GC 4551)” value [3, 21] was 2 to 4 µg/mL, the “MIC Coagulase Negative Staphylococcus (GC 6257)” value [3, 22] was 1 to 2 µg/mL and the “MIC Streptococcus agalactiae (GC 4564)” value ([4]; strain GC 4564) was 0.5 to 1 µg/mL. The median effective dose (ED50), Staphylococcus aureus-SMITH (GC 4543) [5] was 0.28 mg/kg.
